Experimental data: DBAASP
≈ marks a conversion by molar mass, not a printed value. Values belong to the compound of their own block, whether it stands above or below them.

Legend:
Test in all cases: ≥ marks a high value that may be exact or a test limit, other limits are often not marked, values filed in µg/mL are converted to µM
[1] = test system: Candida albicans NCYC 1467
[2] = test system: Escherichia coli NCTC 10418
[3] = test system: Staphylococcus aureus NCTC 10788
[4] = test system: Pseudomonas aeruginosa Ps4
[5] = test system: Staphylococcus aureus ATCC 12600
[6] = test system: Escherichia coli ATCC 11775
[7] = test system: Staphylococcus aureus ATCC 25923
[8] = test system: Enterococcus faecalis ATCC 29212
[9] = test system: Salmonella enterica serovar Typhimurium
Escherichia coli UB1005 = test system: Escherichia coli UB1005
Candida albicans = test system: Candida albicans
[10] = test system: Pseudomonas aeruginosa H103
[11] = test system: Staphylococcus epidermidis
[12] = test system: Bacillus subtilis KCTC 3068
[13] = test system: Pseudomonas aeruginosa KCTC 1637
[14] = test system: Staphylococcus epidermidis KCTC 1917
[15] = test system: Escherichia coli KCTC 1682
[16] = test system: Staphylococcus aureus KCTC 1621
[17] = test system: Salmonella typhimurium KCTC 1926
[18] = test system: Escherichia coli ATCC 25922
[19] = test system: Pseudomonas aeruginosa PAO1
Staphylococcus aureus = test system: Staphylococcus aureus
Enterococcus faecium = test system: Enterococcus faecium

SMILES: CC[C@H](C)[C@H](NC(=O)[C@H](CC(=O)O)NC(=O)[C@H](CCCCN)NC(=O)[C@H](Cc1c[nH]c2ccccc12)NC(=O)[C@H](CC(C)C)NC(=O)[C@H](C)N)C(=O)N[C@@H](CC(C)C)C(=O)N[C@@H](CCCCN)C(=O)N[C@@H](CC(N)=O)C(=O)N[C@@H](CC(C)C)C(=O)N[C@@H](CC(C)C)C(=O)N[C@@H](CCCCN)C(=O)N[C@@H](C)C(=O)N[C@@H](C)C(=O)N[C@@H](CC(C)C)C(=O)N[C@@H](CC(N)=O)C(=O)N[C@@H](CCC(=O)O)C(=O)N[C@H](C(=O)N[C@@H](CC(N)=O)C(=O)N[C@@H](CCC(N)=O)C(=O)N[C@H](C(=O)N[C@H](C(=O)N[C@@H](CCC(N)=O)C(N)=O)C(C)C)[C@@H](C)CC)[C@@H](C)CC [ALWKDILKNLLKAALNEINQIVQ]
MIC [1]: 16 µM (≈ 42.4 µg/mL) | MIC [2]: 16 µM (≈ 42.4 µg/mL) | MIC [3]: 8 µM (≈ 21.2 µg/mL)

SMILES: C[C@@H](O)[C@H](NC(=O)[C@H](Cc1c[nH]c2ccccc12)NC(=O)[C@H](Cc1c[nH]c2ccccc12)NC(=O)[C@@H](NC(=O)[C@H](CCCCN)NC(=O)[C@H](Cc1c[nH]c2ccccc12)NC(=O)[C@H](Cc1c[nH]c2ccccc12)NC(=O)[C@@H](NC(=O)[C@H](CCCCN)NC(=O)[C@@H](N)CCCCN)[C@@H](C)O)[C@@H](C)O)C(=O)N[C@@H](CCCCN)C(=O)N[C@@H](Cc1c[nH]c2ccccc12)C(=O)O [KKTWWKTWWTKW]
MIC [12]: 2 µM (≈ 3.53 µg/mL) | MIC [13]: 8 µM (≈ 14.1 µg/mL) | MIC [14]: 4 µM (≈ 7.06 µg/mL) | MIC [15]: 4 µM (≈ 7.06 µg/mL) | MIC [16]: 4 µM (≈ 7.06 µg/mL) | MIC [17]: 4 µM (≈ 7.06 µg/mL)

SMILES: CC[C@H](C)[C@H](NC(=O)[C@@H](NC(=O)[C@@H](NC(=O)[C@H](CCCN=C(N)N)NC(=O)[C@H](CCCN=C(N)N)NC(=O)[C@H](CCC(N)=O)NC(=O)[C@@H](N)CCCN=C(N)N)C(C)C)C(C)C)C(=O)N[C@@H](Cc1c[nH]c2ccccc12)C(=O)N[C@@H](Cc1c[nH]c2ccccc12)C(=O)O [RQRRVVIWW]
MIC [7]: 2.7 µM (≈ 3.51 µg/mL) | MIC [8]: 5.3 µM (≈ 6.88 µg/mL) | MIC [9]: 5.3 µM (≈ 6.88 µg/mL) | MIC (Escherichia coli UB1005): 1.3 µM (≈ 1.69 µg/mL) | MIC (Candida albicans): 21.4 µM (≈ 27.8 µg/mL) | MIC [10]: 10.7 µM (≈ 13.9 µg/mL) | MIC [11]: 1.3 µM (≈ 1.69 µg/mL)

SMILES: NC(=O)[C@H](CCCN=C(N)N)NC(=O)[C@H](CCCN=C(N)N)NC(=O)[C@H](Cc1c[nH]c2ccccc12)NC(=O)[C@@H]1CCCN1C(=O)[C@H](Cc1c[nH]c2ccccc12)NC(=O)[C@H](Cc1c[nH]c2ccccc12)NC(=O)[C@@H]1CCCN1C(=O)[C@H](Cc1c[nH]c2ccccc12)NC(=O)[C@H](CCCN=C(N)N)NC(=O)[C@@H](N)CCCN=C(N)N [RRWPWWPWRR]
MIC [12]: 1.26 µM (≈ 2 µg/mL) | MIC (Staphylococcus aureus): 2.53 µM (≈ 4 µg/mL) | MIC [15]: 1.26 µM (≈ 2 µg/mL) | MIC (Enterococcus faecium): 1.79 µM (≈ 2.83 µg/mL) | MIC [16]: 1.26 µM (≈ 2 µg/mL) | MIC [17]: 2.53 µM (≈ 4 µg/mL)

SMILES: CC[C@H](C)[C@H](NC(=O)[C@H](CC(N)=O)NC(=O)[C@H](CCCN=C(N)N)NC(=O)[C@H](CCC(N)=O)NC(=O)[C@H](Cc1c[nH]c2ccccc12)NC(=O)[C@H](CCCN=C(N)N)NC(=O)[C@@H](N)CCCN=C(N)N)C(=O)N[C@@H](CCCN=C(N)N)C(=O)N[C@@H](CCCCN)C(=O)N[C@H](C(=O)N[C@@H](CCCN=C(N)N)C(=O)N[C@@H](CCCN=C(N)N)C(N)=O)C(C)C [RRWQRNIRKVRR]
MIC [4]: ≥ 145 µM

SMILES: CC[C@H](C)[C@H](NC(=O)[C@H](CC(N)=O)NC(=O)[C@H](CCCN=C(N)N)NC(=O)[C@H](CCC(N)=O)NC(=O)[C@H](Cc1c[nH]c2ccccc12)NC(=O)[C@@H](N)CCCN=C(N)N)C(=O)N[C@@H](CCCN=C(N)N)C(=O)N[C@@H](CCCCN)C(=O)N[C@H](C(=O)N[C@@H](CCCN=C(N)N)C(=O)N[C@@H](CCCN=C(N)N)C(N)=O)C(C)C [RWQRNIRKVRR]
MIC [4]: ≥ 159 µM

SMILES: CC[C@H](C)[C@H](NC(=O)[C@H](CCCN=C(N)N)NC(=O)[C@@H](NC(=O)[C@H](Cc1c[nH]c2ccccc12)NC(=O)[C@H](Cc1c[nH]c2ccccc12)NC(=O)[C@@H](N)CCCN=C(N)N)[C@@H](C)CC)C(=O)N[C@@H](CCCN=C(N)N)C(=O)N[C@@H](Cc1c[nH]c2ccccc12)C(=O)N[C@@H](Cc1cnc[nH]1)C(=O)O [RWWIRIRWH]
MIC [7]: 1.3 µM (≈ 1.83 µg/mL) | MIC [8]: 2.7 µM (≈ 3.8 µg/mL) | MIC [9]: 2.7 µM (≈ 3.8 µg/mL) | MIC (Escherichia coli UB1005): 1.3 µM (≈ 1.83 µg/mL) | MIC (Candida albicans): 10.7 µM (≈ 15.1 µg/mL) | MIC [10]: 10.7 µM (≈ 15.1 µg/mL) | MIC [11]: 1.3 µM (≈ 1.83 µg/mL)

The next lines start with the values.

MIC [4]: ≥ 196 µM
SMILES: CC[C@H](C)[C@H](NC(=O)[C@H](CC(N)=O)NC(=O)[C@H](CCCN=C(N)N)NC(=O)[C@H](CCC(N)=O)NC(=O)[C@H](Cc1c[nH]c2ccccc12)NC(=O)[C@@H](N)Cc1ccccc1)C(=O)N[C@@H](CCCN=C(N)N)C(=O)N[C@H](C(=O)N[C@@H](CCCN=C(N)N)C(N)=O)C(C)C [FWQRNIRVR]

MIC [4]: ≥ 250 µM
SMILES: CC[C@H](C)[C@H](NC(=O)[C@H](CC(N)=O)NC(=O)[C@H](CCCN=C(N)N)NC(=O)[C@@H](NC(=O)[C@H](Cc1c[nH]c2ccccc12)NC(=O)[C@@H](N)Cc1ccccc1)C(C)C)C(=O)N[C@@H](CCCN=C(N)N)C(=O)N[C@@H](CCCCN)C(=O)N[C@H](C(=O)N[C@@H](CCCN=C(N)N)C(N)=O)C(C)C [FWVRNIRKVR]

MIC [5]: 6 µM (≈ 8.76 µg/mL) | MIC [6]: 3 µM (≈ 4.38 µg/mL)
SMILES: CC[C@H](C)[C@H](N)C(=O)N[C@H](C(=O)N1CCC[C@H]1C(=O)N[C@@H](CC(C)C)C(=O)N1CCC[C@H]1C(=O)N[C@@H](CC(C)C)C(=O)NCC(=O)N[C@@H](Cc1ccc(O)cc1)C(=O)N[C@@H](Cc1ccccc1)C(=O)N[C@@H](C)C(=O)N[C@@H](CCCCN)C(=O)N[C@@H](CCCCN)C(=O)N[C@H](C(=O)O)[C@@H](C)O)[C@@H](C)CC [IIPLPLGYFAKKT]

MIC [7]: 13.8 µM (≈ 16 µg/mL) | MIC [8]: 13.8 µM (≈ 16 µg/mL) | MIC [9]: 26.8 µM (≈ 31 µg/mL) | MIC (Escherichia coli UB1005): 6.92 µM (≈ 7.99 µg/mL) | MIC (Candida albicans): 13.8 µM (≈ 16 µg/mL) | MIC [10]: 13.8 µM (≈ 16 µg/mL) | MIC [11]: 3.46 µM (≈ 4 µg/mL)
SMILES: CC[C@H](C)[C@H](NC(=O)[C@@H](NC(=O)[C@H](Cc1c[nH]c2ccccc12)NC(=O)[C@@H](NC(=O)[C@@H](N)CCCCN)[C@@H](C)CC)C(C)C)C(=O)N[C@@H](CCCN=C(N)N)C(=O)N[C@@H](Cc1c[nH]c2ccccc12)C(=O)N[C@@H](CCCN=C(N)N)C(N)=O [KIWVIRWR]

MIC [12]: 8.97 µM (≈ 12.5 µg/mL) | MIC [13]: 8.97 µM (≈ 12.5 µg/mL) | MIC [14]: 8.97 µM (≈ 12.5 µg/mL) | MIC [15]: 8.97 µM (≈ 12.5 µg/mL) | MIC [16]: 8.97 µM (≈ 12.5 µg/mL) | MIC [17]: 4.48 µM (≈ 6.25 µg/mL)
SMILES: CC[C@H](C)[C@H](NC(=O)[C@H](CCCCN)NC(=O)[C@H](CC(C)C)NC(=O)[C@H](CC(C)C)NC(=O)[C@@H](N)CCCCN)C(=O)N[C@H](C(=O)N[C@H](C(=O)N[C@H](C(=O)N[C@@H](CCCCN)C(=O)N[C@H](C(=O)N[C@@H](CC(C)C)C(=O)N[C@@H](CCCCN)C(N)=O)C(C)C)[C@@H](C)CC)C(C)C)C(C)C [KLLKIVVIKVLK]

MIC [7]: 21.4 µM (≈ 32 µg/mL) | MIC [18]: 21.4 µM (≈ 32 µg/mL) | MIC [19]: 85.6 µM (≈ 128 µg/mL) | MIC [9]: ≥ 42.8 µM
SMILES: CC[C@H](C)[C@H](NC(=O)[C@H](CCCN=C(N)N)NC(=O)[C@H](Cc1c[nH]c2ccccc12)NC(=O)[C@H](CCC(N)=O)NC(=O)[C@@H](N)CCCCN)C(=O)N[C@@H](CCCN=C(N)N)C(=O)N[C@H](C(=O)N[C@@H](C)C(=O)N[C@H](C(=O)N[C@H](C(=O)N[C@@H](CCCN=C(N)N)C(=O)N[C@@H](C)C(=O)O)[C@@H](C)CC)C(C)C)C(C)C [KQWRIRVAVIRA]

MIC [1]: ≥ 35 µM | MIC [3]: 17.5 µM (≈ 32 µg/mL)
SMILES: CC[C@H](C)[C@H](NC(=O)[C@H](C)NC(=O)[C@H](CC(C)C)NC(=O)[C@@H]1CCCN1C(=O)[C@@H](NC(=O)[C@H](CCSC)NC(=O)CNC(=O)[C@H](CC(C)C)NC(=O)[C@@H](N)CC(C)C)[C@@H](C)CC)C(=O)N[C@@H](CO)C(=O)N[C@@H](C)C(=O)N[C@H](C(=O)N[C@@H](CO)C(=O)N[C@@H](CO)C(=O)N[C@@H](CC(C)C)C(=O)N[C@@H](CO)C(=O)N[C@@H](CCCCN)C(=O)N[C@@H](CC(C)C)C(N)=O)[C@@H](C)CC [LLGMIPLAISAISSLSKL]

MIC [7]: 1 µM (≈ 1.58 µg/mL) | MIC [8]: 2 µM (≈ 3.17 µg/mL) | MIC [9]: 4 µM (≈ 6.33 µg/mL) | MIC (Escherichia coli UB1005): 4 µM (≈ 6.33 µg/mL) | MIC (Candida albicans): 16 µM (≈ 25.3 µg/mL) | MIC [10]: 8 µM (≈ 12.7 µg/mL) | MIC [11]: 0.5 µM (≈ 0.792 µg/mL)
SMILES: CC[C@H](C)[C@H](NC(=O)[C@H](CCCN=C(N)N)NC(=O)[C@H](CCCN=C(N)N)NC(=O)[C@H](CC(C)C)NC(=O)[C@@H](N)CCCN=C(N)N)C(=O)N[C@H](C(=O)N[C@H](C(=O)N[C@H](C(=O)N[C@@H](CCCN=C(N)N)C(=O)N[C@H](C(=O)N[C@@H](Cc1ccccc1)C(=O)N[C@@H](CCCN=C(N)N)C(=O)O)C(C)C)[C@@H](C)CC)C(C)C)C(C)C [RLRRIVVIRVFR]
